Data reported in patent publication US12398154B2, “Azaquinazoline pan-KRas inhibitors” (Mirati Therapeutics, Inc., priority 2020, dated 2025).

Experiments:
KRas G12C = KRas G12C (Homo sapiens, UniProt P01116, G12C); assay: biochemical;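 note: binding to KRas assessed by TR-FRET displacement after one hour incubation at room temperature, potency fitted from percent-of-control values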
Experimental: (§1) The ability of a compound to bind to KRas was measured using a TR-FRET displacement assay. […] After a 60-minute incubation at room temperature, the reaction was measured using a BMG LABTECH CLARIO star Plus via TR-FRET. […] The POC values were fit to a 4-parameter IC50 equation and the IC50 value reported.

KRas G13D = molecular target: T1, KRas G13D (Homo sapiens, UniProt P01116, G13D); assay: KRas binding assay (TR-FRET displacement);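 note: One-hour room temperature incubation before TR-FRET reading, IC50 from a four-parameter curve fit to percent-of-control data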
T1 construct: Biotinylated KRas (corresponding to amino acids 1-169, produced at Accelegan Inc.); biotin (biotinylated); purchased Accelegan Inc
T1 sequence (P01116 1-169 isoform P01116-2 G13D): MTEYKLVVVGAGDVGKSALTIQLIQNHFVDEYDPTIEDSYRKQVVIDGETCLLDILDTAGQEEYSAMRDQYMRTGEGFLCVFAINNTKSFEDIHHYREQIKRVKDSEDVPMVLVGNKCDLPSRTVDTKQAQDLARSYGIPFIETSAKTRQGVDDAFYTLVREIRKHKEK
Experimental: as §1

KRas G12S = KRas G12S (Homo sapiens, UniProt P01116, G12S); assay: biochemical;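 note: TR-FRET displacement binding to KRas, read after one hour incubation at room temperature, IC50 from four-parameter fit of percent of control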
Sequence of KRas G12S (P01116 1-169 isoform P01116-2 G12S): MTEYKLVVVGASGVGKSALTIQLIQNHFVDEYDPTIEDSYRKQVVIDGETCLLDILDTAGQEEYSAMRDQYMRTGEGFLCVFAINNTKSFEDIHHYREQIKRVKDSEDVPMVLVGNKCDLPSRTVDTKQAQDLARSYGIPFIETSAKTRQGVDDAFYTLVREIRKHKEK
Experimental: as §1

KRas WT = KRas WT (Homo sapiens, UniProt P01116); assay: biochemical;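 note: binding to KRas read as TR-FRET displacement after a one-hour room-temperature incubation, IC50 derived from percent-of-control values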
Sequence of KRas WT (P01116 1-169 isoform P01116-2): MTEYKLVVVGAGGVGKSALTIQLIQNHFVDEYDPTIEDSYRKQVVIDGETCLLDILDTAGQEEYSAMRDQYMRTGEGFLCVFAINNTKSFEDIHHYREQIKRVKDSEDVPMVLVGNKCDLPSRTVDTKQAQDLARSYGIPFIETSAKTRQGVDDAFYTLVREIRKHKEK
Experimental: as §1

KRas Q61H = molecular target: T2, KRas Q61H (Homo sapiens, UniProt P01116, Q61H); assay: KRas binding assay (TR-FRET displacement);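 note: TR-FRET signal read after one hour at room temperature, IC50 derived by four-parameter fitting of percent-of-control values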
T2 construct: Biotinylated KRas (corresponding to amino acids 1-169, produced at Accelegan Inc.); biotin (biotinylated); purchased Accelegan Inc
T2 sequence (P01116 1-169 isoform P01116-2 Q61H): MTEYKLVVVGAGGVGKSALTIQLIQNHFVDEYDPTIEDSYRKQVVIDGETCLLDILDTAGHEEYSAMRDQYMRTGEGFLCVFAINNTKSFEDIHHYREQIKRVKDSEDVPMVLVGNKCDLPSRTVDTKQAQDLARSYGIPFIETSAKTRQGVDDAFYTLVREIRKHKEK
Experimental: as §1

KRas G12D = KRas G12D (Homo sapiens, UniProt P01116, G12D); assay: biochemical;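 note: TR-FRET displacement binding assay on KRas, read after a one-hour incubation at room temperature, IC50 fitted from percent-of-control values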
Sequence of KRas G12D (P01116 1-169 isoform P01116-2 G12D): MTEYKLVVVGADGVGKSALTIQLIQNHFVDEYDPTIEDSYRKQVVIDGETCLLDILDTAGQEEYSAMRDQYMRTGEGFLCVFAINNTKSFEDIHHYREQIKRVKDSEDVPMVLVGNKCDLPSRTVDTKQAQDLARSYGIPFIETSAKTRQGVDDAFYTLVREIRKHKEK
Experimental: as §1

KRas G12V = KRas G12V (Homo sapiens, UniProt P01116, G12V); assay: biochemical;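 note: KRas binding measured by TR-FRET displacement at room temperature, IC50 fitted from percent of control values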
Sequence of KRas G12V (P01116 1-169 isoform P01116-2 G12V): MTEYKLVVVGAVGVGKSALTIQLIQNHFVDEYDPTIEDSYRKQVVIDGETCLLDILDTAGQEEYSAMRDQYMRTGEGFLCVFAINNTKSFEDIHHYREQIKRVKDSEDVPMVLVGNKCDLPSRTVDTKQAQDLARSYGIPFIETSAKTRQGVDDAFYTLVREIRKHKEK
Experimental: as §1

KRas G12R = KRas G12R (Homo sapiens, UniProt P01116, G12R); assay: biochemical;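 note: TR-FRET displacement assay of compound binding to KRas, read after one hour at room temperature, potency from a four-parameter fit of percent-of-control values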
Sequence of KRas G12R (P01116 1-169 isoform P01116-2 G12R): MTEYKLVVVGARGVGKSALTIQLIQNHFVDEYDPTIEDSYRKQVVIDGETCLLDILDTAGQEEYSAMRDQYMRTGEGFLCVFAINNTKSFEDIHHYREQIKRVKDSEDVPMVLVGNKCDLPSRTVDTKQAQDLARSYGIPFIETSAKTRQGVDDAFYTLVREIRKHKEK
Experimental: as §1

KRas G12A = KRas G12A (Homo sapiens, UniProt P01116, G12A); assay: biochemical;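 note: binding to KRas measured by TR-FRET displacement after one hour at room temperature, IC50 from a four-parameter fit of percent-of-control values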
Sequence of KRas G12A (P01116 1-169 isoform P01116-2 G12A): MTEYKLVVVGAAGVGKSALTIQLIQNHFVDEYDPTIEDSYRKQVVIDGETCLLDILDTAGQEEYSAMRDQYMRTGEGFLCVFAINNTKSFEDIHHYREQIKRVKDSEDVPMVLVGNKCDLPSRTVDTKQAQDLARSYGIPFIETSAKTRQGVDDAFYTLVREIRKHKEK
Experimental: as §1

pERK in H460 cells = assay: Inhibition of KRas phosphorylation of ERK (Cisbio HTRF pERK assay); conditions: Homo sapiens, NCI-H460, read-out: Inhibition (HTRF IC50) of KRas-mediated Phosphorylation of ERK, H460
pERK in MKN1 cells = assay: as above; conditions: Homo sapiens, MKN-1, 3 h, read-out: Inhibition (HTRF IC50) of KRas-mediated Phosphorylation of ERK, MKN1
pERK in PSN1 cells = assay: as above; conditions: Homo sapiens, PSN1, 3 h, read-out: Inhibition (HTRF IC50) of KRas-mediated Phosphorylation of ERK, PSN1
pERK in ASPC1 cells = assay: as above; conditions: Homo sapiens, ASPC1, read-out: Inhibition (HTRF IC50) of KRas-mediated Phosphorylation of ERK, AsPC-1
pERK in HCT116 cells = assay: as above; conditions: Homo sapiens, HCT-116, read-out: Inhibition (HTRF IC50) of KRas-mediated Phosphorylation of ERK, HCT116
pERK in H727 cells = assay: as above; conditions: Homo sapiens, NCI-H727, read-out: Inhibition (HTRF IC50) of KRas-mediated Phosphorylation of ERK, H727

Sequence of KRas G12C (P01116 1-169 isoform P01116-2 G12C): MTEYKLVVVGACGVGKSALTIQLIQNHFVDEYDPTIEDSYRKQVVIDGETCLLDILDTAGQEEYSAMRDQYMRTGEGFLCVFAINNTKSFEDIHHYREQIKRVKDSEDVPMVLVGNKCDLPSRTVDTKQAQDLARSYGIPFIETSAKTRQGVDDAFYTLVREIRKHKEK

SMILES | IC50 (KRas G12C) [nM] | IC50 (KRas G13D) [nM] | IC50 (KRas G12S) [nM] | IC50 (KRas WT) [µM] | IC50 (KRas Q61H) [nM] | IC50 (KRas G12D) [nM] | IC50 (KRas G12V) [nM] | IC50 (KRas G12R) [nM] | IC50 (KRas G12A) [nM] | IC50 (pERK in H460 cells) [nM] | IC50 (pERK in MKN1 cells) [nM] | IC50 (pERK in PSN1 cells) [µM] | IC50 (pERK in ASPC1 cells) [nM] | IC50 (pERK in HCT116 cells) [nM] | IC50 (pERK in H727 cells) [nM]
O=S1(=O)NCC2(CCCN(c3nc(OCC45CCCN4CCC5)nc4c(F)c(-c5cccc6cccc(F)c56)ncc34)C2)N1 (stereo not shown) [Example 252, 7-(8-fluoro-7-(8-fluoronaphthalen-1-yl)-2-((tetrahydro-1H-pyrrolizin-7a(5H)-yl)methoxy)pyrido[4,3-d]pyrimidin-4-yl)-2-thia-1,3,7-triazaspiro[4.5]decane 2,2-dioxide] | 17 | 6 | 8 | 0.007 | 9 | 11 | 17 | 27 | 5 | – | – | – | – | – | –
Fc1c(-c2cccc3cccc(F)c23)ncc2c(N3CC(n4cncn4)C3)nc(OCC34CCCN3CCC4)nc12 [Example 253, 4-(3-(1H-1,2,4-triazol-1-yl)azetidin-1-yl)-8-fluoro-7-(8-fluoronaphthalen-1-yl)-2-((hexahydro-1H-pyrrolizin-7a-yl)methoxy)pyrido[4,3-d]pyrimidine] | 2410 | 14100 | 3590 | 6 | 7720 | 67300 | 4350 | 4080 | 3030 | – | – | – | – | – | –
CN(C)CC1(COc2nc(N3CCCC(C)(O)C3)c3cnc(-c4cccc5cccc(F)c45)c(F)c3n2)CC1 (stereo not shown) [Example 256, 1-(2-((1-((dimethylamino)methyl)cyclopropyl)methoxy)-8-fluoro-7-(8-fluoronaphthalen-1-yl)pyrido[4,3-d]pyrimidin-4-yl)-3-methylpiperidin-3-ol] | 4050 | 3800 | 5310 | 4.03 | 6020 | 2420 | 4540 | 8140 | 4630 | – | – | – | – | – | –
CC1(O)CCCN(c2nc(OCC3(CN4CCCC4)CC3)nc3c(F)c(-c4cccc5cccc(F)c45)ncc23)C1 (stereo not shown) [Example 257, 1-(8-fluoro-7-(8-fluoronaphthalen-1-yl)-2-((1-(pyrrolidin-1-ylmethyl)cyclopropyl)methoxy)pyrido[4,3-d]pyrimidin-4-yl)-3-methylpiperidin-3-ol] | 4000 | 3960 | 5220 | 4.03 | 6030 | 2430 | 3790 | 6910 | 5490 | – | – | – | – | – | –
NC(=O)c1cc2n(n1)CCCN(c1nc(OCC34CCCN3CCC4)nc3c(F)c(-c4cccc5cccc(F)c45)ncc13)C2 [Example 258, 5-(8-fluoro-7-(8-fluoronaphthalen-1-yl)-2-((hexahydro-1H-pyrrolizin-7a-yl)methoxy)pyrido[4,3-d]pyrimidin-4-yl)-5,6,7,8-tetrahydro-4H-pyrazolo[1,5-a][1,4]diazepine-2-carboxamide] | 1380 | 4380 | 1010 | 3.25 | 4610 | 320 | 858 | 1180 | 2070 | – | – | – | – | – | –
CNC(=O)c1cc2n(n1)CCCN(c1nc(OCC34CCCN3CCC4)nc3c(F)c(-c4cccc5cccc(F)c45)ncc13)C2 [Example 259, 5-(8-fluoro-7-(8-fluoronaphthalen-1-yl)-2-((hexahydro-1H-pyrrolizin-7a-yl)methoxy)pyrido[4,3-d]pyrimidin-4-yl)-N-methyl-5,6,7,8-tetrahydro-4H-pyrazolo[1,5-a][1,4]diazepine-2-carboxamide] | 825 | 3300 | 649 | 2.21 | 3180 | 158 | 380 | 769 | 1520 | – | – | – | – | – | –
CN(C)C(=O)c1cc2n(n1)CCCN(c1nc(OCC34CCCN3CCC4)nc3c(F)c(-c4cccc5cccc(F)c45)ncc13)C2 [Example 260, 5-(8-fluoro-7-(8-fluoronaphthalen-1-yl)-2-((hexahydro-1H-pyrrolizin-7a-yl)methoxy)pyrido[4,3-d]pyrimidin-4-yl)-N,N-dimethyl-5,6,7,8-tetrahydro-4H-pyrazolo[1,5-a][1,4]diazepine-2-carboxamide] | 591 | 1170 | 419 | 0.864 | 1060 | 61 | 204 | 455 | 294 | – | – | – | – | – | –
OCc1cc2n(n1)CCCN(c1nc(OCC34CCCN3CCC4)nc3c(F)c(-c4cccc5cccc(F)c45)ncc13)C2 [Example 261, (5-(8-fluoro-7-(8-fluoronaphthalen-1-yl)-2-((hexahydro-1H-pyrrolizin-7a-yl)methoxy)pyrido[4,3-d]pyrimidin-4-yl)-5,6,7,8-tetrahydro-4H-pyrazolo[1,5-a][1,4]diazepin-2-yl)methanol] | 2390 | 9610 | 2320 | 7.1 | 10700 | 1610 | 3980 | 2610 | 5740 | – | – | – | – | – | –
CCc1c(F)ccc2cc(O)cc(-c3ncc4c(N5CCCCC(O)C5)nc(OC[C@@]56CCCN5C[C@H](F)C6)nc4c3F)c12 (stereo partly drawn) [Example 347, 1-(7-(8-ethyl-7-fluoro-3-hydroxynaphthalen-1-yl)-8-fluoro-2-(((2R,7aS)-2-fluorohexahydro-1H-pyrrolizin-7a-yl)methoxy)pyrido[4,3-d]pyrimidin-4-yl)azepan-3-ol] | – | – | – | – | – | 3 | 3 | 3 | – | 127 | 98 | 4.46 | 118 | 195 | 73
O=C1C[C@]2(CCCN(c3nc(OC[C@@]45CCCN4C[C@H](F)C5)nc4c(F)c(-c5cc(O)cc6ccc(F)c(Cl)c56)ncc34)C2)N1 [Example 416, (S)-6-(7-(8-chloro-7-fluoro-3-hydroxynaphthalen-1-yl)-8-fluoro-2-(((2R,7aS)-2-fluorohexahydro-1H-pyrrolizin-7a-yl)methoxy)pyrido[4,3-d]pyrimidin-4-yl)-1,6-diazaspiro[3.5]nonan-2-one] | – | – | – | – | – | ≤ 2 | ≤ 2 | ≤ 2 | – | 283 | 3 | 1.3 | 141 | 2190 | 83
CCc1c(F)ccc2cc(O)cc(-c3ncc4c(N5CCCc6nn(C(=O)NC(C)C)cc6C5)nc(OC[C@@]56CCCN5C[C@H](F)C6)nc4c3F)c12 [Example 479, 5-(7-(8-ethyl-7-fluoro-3-hydroxynaphthalen-1-yl)-8-fluoro-2-(((2R,7aS)-2-fluorohexahydro-1H-pyrrolizin-7a-yl)methoxy)pyrido[4,3-d]pyrimidin-4-yl)-N-isopropyl-5,6,7,8-tetrahydropyrazolo[4,3-c]azepine-2(4H)-carboxamide] | – | – | – | – | – | 5 | 4 | 12 | – | 987 | 328 | ≥ 10 | 203 | – | 115
CCc1c(F)ccc2cc(O)cc(-c3ncc4c(NCc5cc(C(=O)N(C)C)nn5C)nc(OC[C@@]56CCCN5C[C@H](F)C6)nc4c3F)c12 [Example 483, 5-(((7-(8-ethyl-7-fluoro-3-hydroxynaphthalen-1-yl)-8-fluoro-2-(((2R,7aS)-2-fluorotetrahydro-1H-pyrrolizin-7a(5H)-yl)methoxy)pyrido[4,3-d]pyrimidin-4-yl)amino)methyl)-N,N,1-trimethyl-1H-pyrazole-3-carboxamide] | – | – | – | – | – | ≤ 2 | ≤ 2 | ≤ 2 | – | 1590 | 83 | ≥ 10 | 890 | – | 339
